# Laboratory results: patent publication US20050202089A1 (SANOFI-SYNTHELABO, priority 1996, published 2005)
# Assay: solubility of mizolastine in water
substance,measurement,setting,value
2-[[1-[1-[(4-fluorophenyl)methyl]-1H-benzimidazol-2-yl]piperid-4-yl]methylamino]-pyrimidin-4-ol [mizolastine],solubility in water,neutral pH,13 µg/mL
same,solubility,pH 3,11000 µg/mL
